Laboratory results from patent US7692038B2, “Crystalline forms” (Pfizer, Inc., priority 2006, dated 2010).

What was measured:
[1] = Hygroscopicity by dynamic vapour sorption (DVS), water sorption and desorption; assay type: physicochemical; details: 30° C.
Experimental: Hygroscopicity was assessed for forms I and II using dynamic vapour sorption (DVS). The samples were characterised using a Surface Measurement Systems Ltd, dynamic vapour sorption equipment, model DVS-1. The analysis was conducted at 30° C. with a nitrogen gas flow of 200 cc/min. Water sorption and desorption were determined in the range 0 to 90% relative humidity (RH) using 15% RH intervals. Exposure was for a minimum of two hours at each humidity, or until the rate of weight change was less than 0.0005%/minute (averaged over 10 minutes). Sample weights were in the range 23-36 mg. The samples were weighed using a CAHN D-200, seven place digital recording balance, which is an integral part of the equipment. The results are tabulated below in Tables 6 and 7 and plotted in FIGS. 15 and 16.

[2] = Relative thermodynamic stability of polymorphs (slurry conversion); assay type: physicochemical; details: ambient temperature
Experimental: The crystalline forms of the invention may be prepared by the processes described below. The skilled person will understand that the preparation of particular polymorphic forms of a compound can sometimes be problematic, and that small changes in reaction conditions can sometimes result in an unexpected product. In particular, the presence of seeds in the atmosphere under which the experiment is conducted can have a decisive outcome on the result. The processes described below, however, are generally reliable. […] The form I polymorph is the more kinetically favoured product at ambient temperature and its formation is encouraged by rapid crystallisation techniques such as rapid cooling. Seeding with the desired product will obviously increase success in these preparations. Preparation of form I material is particularly encouraged by the use of a form I seed which contains a mixture of diastereomers due to epimerisation at the modified aspartate residue.
Pure form II may be prepared by slurrying a mixture of forms I and II in acetonitrile at room temperature until full conversion has taken place (typically a few days, e.g. 3 days). The product is then filtered off and dried (e.g. in a vacuum oven). The following procedures are illustrative.
A 40:60 mixture (by weight) of forms I and II was slurried in acetonitrile and left for three days. […]

Row | SMILES | Water Sorption (% w/dry w) Desorption ([1]; 15% RH) [% w/dry w] | Water Sorption (% w/dry w) Sorption ([1]; 15% RH) [% w/dry w] | Water Sorption (% w/dry w) Desorption ([1]; 30% RH) [% w/dry w] | Water Sorption (% w/dry w) Sorption ([1]; 30% RH) [% w/dry w] | Water Sorption (% w/dry w) Desorption ([1]; 45% RH) [% w/dry w] | Water Sorption (% w/dry w) Sorption ([1]; 45% RH) [% w/dry w] | Water Sorption (% w/dry w) Desorption ([1]; 60% RH) [% w/dry w] | Water Sorption (% w/dry w) Sorption ([1]; 60% RH) [% w/dry w] | Water Sorption (% w/dry w) Desorption ([1]; 75% RH) [% w/dry w] | Water Sorption (% w/dry w) Sorption ([1]; 75% RH) [% w/dry w] | Water Sorption (% w/dry w) Desorption ([1]; 90% RH) [% w/dry w] | Water Sorption (% w/dry w) Sorption ([1]; 90% RH) [% w/dry w] | Thermodynamic stability of the polymorph [2]
1 | C[C@H](NC(=O)C(=O)Nc1ccccc1C(C)(C)C)C(=O)N[C@@H](CC(=O)O)C(=O)COc1c(F)c(F)cc(F)c1F [Form I, (3S)-3-[N—(N′-(2-tert-butylphenyl)oxamyl)alaninyl]amino-5-(2′,3′,5′,6′-tetrafluorophenoxy)-4-oxopentanoic acid] | 0.015 | 0.018 | 0.025 | 0.028 | 0.037 | 0.049 | 0.055 | 0.072 | 0.105 | 0.110 | 0.208 | 0.208 | –
2 | C[C@H](NC(=O)C(=O)Nc1ccccc1C(C)(C)C)C(=O)N[C@@H](CC(=O)O)C(=O)COc1c(F)c(F)cc(F)c1F [Form II, (3S)-3-[N—(N′-(2-tert-butylphenyl)oxamyl)alaninyl]amino-5-(2′,3′,5′,6′-tetrafluorophenoxy)-4-oxopentanoic acid] | 0.009 | 0.007 | 0.015 | 0.014 | 0.021 | 0.020 | 0.031 | 0.029 | 0.044 | 0.042 | 0.057 | 0.057 | most thermodynamically stable
